Test results from ChEMBL document CHEMBL2046431 (Bioorg Med Chem, 2012).

Experiment: Permeability across human Caco2 cells
Assay type: ADME, cell-based
Details: Caco-2, read-out: permeability

Structure (SMILES) | Papp [×10⁻⁶ cm/s]
CC(C)c1cccc(CNC[C@@H](O)[C@@H]2COC/C=C/C[C@H](c3ccccc3)NC(=O)c3cc(cc(N(C)S(C)(=O)=O)c3)C(=O)N2)c1 | ≤ 1
CN(c1cc2cc(c1)C(=O)N[C@H]([C@H](O)CNCc1ccccc1)COC/C=C/CCNC2=O)S(C)(=O)=O | ≤ 1
Cc1cc2cc(c1)C(=O)N[C@H]([C@H](O)CNCc1ccccc1)COC/C=C/CCNC2=O | ≤ 1
CC(C)c1cccc(CNC[C@@H](O)[C@@H]2COCCCCCNC(=O)c3cc(cc(N(C)S(C)(=O)=O)c3)C(=O)N2)c1 | ≤ 1
CN(c1cc2cc(c1)C(=O)N[C@H]([C@H](O)CNCc1ccccc1)COCCCCCNC2=O)S(C)(=O)=O | ≤ 1
Cc1cc2cc(c1)C(=O)N[C@H]([C@H](O)CNCc1cccc(C(C)C)c1)COC/C=C/CCNC2=O | ≤ 1
CC(C)c1cccc(CNC[C@@H](O)[C@@H]2COCCCCCCNC(=O)c3cc(cc(N(C)S(C)(=O)=O)c3)C(=O)N2)c1 | ≤ 1
CC(C)c1cccc(CNC[C@@H](O)[C@@H]2COC/C=C\CCN(C)C(=O)c3cc(cc(N(C)S(C)(=O)=O)c3)C(=O)N2)c1 | ≤ 1
CN(c1cc2cc(c1)C(=O)N[C@H]([C@H](O)CNCc1cccc(C(C)(C)C)c1)COC/C=C/CCNC2=O)S(C)(=O)=O | ≤ 1
Cc1cc2cc(c1)C(=O)N[C@@H](c1ccccc1)C/C=C/COC[C@@H]([C@H](O)CNCc1cccc(C(C)C)c1)NC2=O | ≤ 1
Cc1cc2cc(c1)C(=O)N[C@H]([C@H](O)CNCc1cccc(C(C)C)c1)COC/C=C/C[C@@H](c1ccccc1)NC2=O | ≤ 1
CC(C)c1cccc(CNC[C@@H](O)[C@@H]2COC/C=C/CCNC(=O)c3cc(cc(N(C)S(C)(=O)=O)c3)C(=O)N2)c1 | ≤ 1
CC(C)c1cccc(CNC[C@@H](O)[C@@H]2COC/C=C/CCCNC(=O)c3cc(cc(N(C)S(C)(=O)=O)c3)C(=O)N2)c1 | ≤ 1
CC(C)c1cccc(CNC[C@@H](O)[C@@H]2COC/C=C/C[C@@H](c3ccccc3)NC(=O)c3cc(cc(N(C)S(C)(=O)=O)c3)C(=O)N2)c1 | ≤ 1
